In general, Km refers to the concentration of substrate that gives half-maximal velocity.

The values below come from US5298411A, “Glucose dehydrogenase from pseudomonas” (Toyo Boseki Kabushiki Kaisha, priority 1990, dated 1994).

Like-named read-outs stand apart in the source and are kept apart here.

What all share (type): biochemical, Pseudomonas sp. FH1227
The subject of test [1] is glucose dehydrogenase (EC1.1.1.47). In words: Substrate specificity of the glucose dehydrogenase (enzyme activity determination). The settings on record: for Relative activity (%): Substrate (100 mM), β-D-glucose = 100.0. An excerpt:
(2) Substrate specificity
(§1) (11) Enzyme activity determination
(A) 0.1M Tris-HCl buffer, pH 8.0
(§2) Calculation equation: [formula]
1.0=optical path length (cm)

The test system is the same in test [2]. In words: Km value determination.
The test system is the same in test [3]. As for the experimental part: as §1
The enzyme activity was determined by taking the enzyme activity producing 1 micromole of NADH per 1 minute under the conditions mentioned below as 1 unit.
1. The following reaction mixture is prepared in a cuvette (d=1 cm) and preheated at 37° C. for about 5 minutes.
2. An enzyme solution (0.05 ml) is added thereto, and the mixture is gently stirred. The change of absorbance at 340 nm is recorded for 5 minutes using a spectrophotometer controlled at 37° C. with water as the control. The change of absorbance per 1 minute is estimated on the basis of the linear portion from minute 2 to minute 5. (ΔOD test)
3. The blank test is conducted by following the same procedure as above except that 0.05 ml of […] (with phosphate buffer, pH 7.0) is used in place of the enzyme solution, to estimate the change in absorbance per 1 minute. (ΔOD blank)
as §2

[4] abbreviates: read-out: Km value to the coenzyme.
[5] abbreviates: inhibitor concentration 2.0 × 10^-3 M, non added = 100.0.

Regarding 2-deoxy-glucose, in test [1], the “Substrate specificity” value is recorded as “specifically acts on” and the “Relative activity (%)” value turned out to be 119.7%.

As for `O=C(CO)[C@@H](O)[C@H](O)[C@H](O)CO` [D-fructose], in test [1], the “Relative activity (%)” value is given as 0.8%.

Turning to `OC[C@H]1OC(O)[C@H](O)[C@@H](O)[C@H]1O` (stereo partly drawn) [D-galactose], in test [1], the “Relative activity (%)” value is reported as 0.1%.

With `OC[C@H]1O[C@@H](O[C@H]2[C@H](O)[C@@H](O)C(O)O[C@@H]2CO)[C@H](O)[C@@H](O)[C@H]1O` (stereo partly drawn) [D-lactose], the “Relative activity (%)” value in test [1] amounted to 1.2%.

For the compound `OC[C@@H](O)[C@@H](O)[C@H](O)[C@H](O)CO` [D-mannitol], the “Relative activity (%)” value in test [1] is on record as 0.0%.

As for `OC[C@H]1OC(O)[C@@H](O)[C@@H](O)[C@@H]1O` (stereo partly drawn) [D-mannose], the “Relative activity (%)” value in test [1] is recorded as 2.4%.

`OC[C@@H](O)[C@@H](O)[C@H](O)[C@@H](O)CO` [D-sorbitol]: the “Relative activity (%)” value in test [1] was 0.1%.

Turning to `OC[C@@H]1OC(O)[C@@H](O)[C@H](O)[C@H]1O` (stereo partly drawn) [L-glucose], the “Relative activity (%)” value in test [1] came to 0.0%.

As to `O=C(CO)[C@@H](O)[C@H](O)[C@@H](O)CO` [L-sorbose], in test [1], the “Relative activity (%)” value is 0.3%.

With `NC(=O)c1ccc[n+]([C@@H]2O[C@H](COP(=O)([O-])OP(=O)(O)OC[C@H]3O[C@@H](n4cnc5c(N)ncnc54)[C@H](OP(=O)(O)O)[C@@H]3O)[C@@H](O)[C@H]2O)c1` [NADP], the Km in test [2] (setting [4]) was determined as 0.0407 mM.

`NC(=O)c1ccc[n+]([C@@H]2O[C@H](COP(=O)([O-])OP(=O)(O)OC[C@H]3O[C@@H](n4cnc5c(N)ncnc54)[C@H](O)[C@@H]3O)[C@@H](O)[C@H]2O)c1` [NAD]: the Km in test [2] (setting [4]) was determined as 0.308 mM.

For the compound `O[C@H]1[C@H](O)[C@@H](O)[C@H](O)[C@@H](O)[C@H]1O` [inositol], the “Relative activity (%)” value in test [1] turned out to be 0.2%.

On to `OC[C@H]1O[C@H](O[C@H]2[C@H](O)[C@@H](O)[C@H](O)O[C@@H]2CO)[C@H](O)[C@@H](O)[C@@H]1O` [maltose], for which the “Relative activity (%)” value in test [1] is recorded as 3.9%.

With `[Cl][Hg][Cl]` [mercury chloride], the “Inhibition of the enzyme” value in test [3] was “inhibited”. In addition, in test [3] (setting [5]), the “Relative activity (%)” value is given as 5.9%.

Regarding `O=C(O)CI` [monoiodoacetate], in test [3], the “Inhibition of the enzyme” value was “inhibited” and the “Relative activity (%)” value was found to be 0.4%.

As for `OC[C@H]1O[C@@](CO)(O[C@H]2O[C@H](CO)[C@@H](O)[C@H](O)[C@H]2O)[C@@H](O)[C@@H]1O` [saccharose], in test [1], the “Relative activity (%)” value stood at 0.0%.

In the case of `O=[N+]([O-])[O-].[Ag+]` [silver nitrate], the “Inhibition of the enzyme” value in test [3] was “inhibited”. Moreover, the “Relative activity (%)” value in test [3] (setting [5]) turned out to be 7.1%.

For the compound `OC[C@H]1O[C@@H](O)[C@H](O)[C@@H](O)[C@@H]1O` [β-D-glucose], in test [2] (coenzyme NAD, read-out: Km value to β-D-glucose), the Michaelis-Menten constant (Km) was 13.8 mM. Moreover, the Km in test [2] (coenzyme NADP, read-out: Km value to β-D-glucose) worked out at 12.5 mM. For the same compound, in test [1], the “Substrate specificity” value was “specifically acts on” and the “Relative activity (%)” value worked out at 100.0%.

In the case of xylose, the “Relative activity (%)” value in test [1] is on record as 8.9%.
